| Compound | melting point [°C] |
| --- | --- |
| O=c1c(OCC2CC2)cn(-c2cccc(C(F)(F)F)c2)nc1-c1ccnn1-c1ccccc1 [Example 61, 5-(Cyclopropylmethoxy)-3-(1-phenyl-1H-pyrazol-5-yl)-1-[3-(trifluoromethyl)phenyl]pyridazin-4(1H)-one] | 72 to 78 |
| COCc1cn(-c2cccc(C(F)(F)F)c2)nc(-c2ccnn2-c2ccccc2)c1=O [Example 66, 5-(Methoxymethyl)-3-(1-phenyl-1H-Pyrazol-5-yl)-1-[3-(trifluoromethyl)phenyl]pyridazin-4(1H)-one] | 137 to 139 |
| O=c1c(Br)cn(-c2cccc(C(F)(F)F)c2)nc1-c1ccnn1-c1ccccc1 [Example 67, 5-Bromo-3-(1-phenyl-1H-pyrazol-5-yl)-1-[3-(trifluoromethyl)phenyl]pyridazin-4(1H)-one] | 145 to 146 |
| COc1cn(-c2ccc(OCc3ccccc3)cc2F)nc(-c2ccnn2-c2ccccc2)c1=O [Example 68, 1-[4-(Benzyloxy)-2-fluorophenyl]-5-methoxy-3-(1-phenyl-1H-pyrazol-5-yl)pyridazin-4(1H)-one] | 181 to 183 |
| O=c1cc(O)n(-c2cccc(C(F)(F)F)c2)nc1-c1ccnn1-c1ccccc1 [Example 69, 6-Hydroxy-3-(1-phenyl-1H-pyrazol-5-yl)-1-[3-(trifluoromethyl)phenyl]pyridazin-4(1H)-one] | 241 to 243 |
| O=c1ccn(-c2cccc(C(F)(F)F)c2)nc1-c1cc(C(F)(F)F)nn1-c1ccccc1 [Example 70, 3-[1-Phenyl-3-(trifluoromethyl)-1H-pyrazol-5-yl]-1-[3-(trifluoromethyl)phenyl]pyridazin-4(1H)-one] | 190 to 191 |
| Cc1cnn(-c2ccccc2)c1-c1nn(-c2cccc(C(F)(F)F)c2)ccc1=O [Example 71, 3-(4-Methyl-1-phenyl-1H-pyrazol-5-yl)-1-[3-(trifluoromethyl)phenyl]pyridazin-4(1H)-one] | 208 to 211 |
| O=c1ccn(-c2cccc(C(F)(F)F)c2)nc1-c1cn(C(c2ccccc2)(c2ccccc2)c2ccccc2)nc1-c1ccccc1 [Example 73, 3-(3-Phenyl-1-trityl-1H-pyrazol-4-yl)-1-[3-(trifluoromethyl)phenyl]pyridazin-4(1H)-one] | 216 to 218 |
| O=c1ccn(-c2cccc(C(F)(F)F)c2)nc1-c1c[nH]nc1-c1ccccc1 [Example 74, 3-(3-Phenyl-1H-pyrazol-4-yl)-1-[3-(trifluoromethyl)phenyl]pyridazin-4(1H)-one] | 206 to 208 |
| Cn1ncc(-c2nn(-c3cccc(C(F)(F)F)c3)ccc2=O)c1-c1ccccc1 [Example 75, 3-(1-Methyl-5-phenyl-1H-pyrazol-4-yl)-1-[3-(trifluoromethyl)phenyl]pyridazin-4(1H)-one] | 193 to 195 |
| Cn1cc(-c2nn(-c3cccc(C(F)(F)F)c3)ccc2=O)c(-c2ccccc2)n1 [Example 76, 3-(1-Methyl-3-phenyl-1H-pyrazol-4-yl)-1-[3-(trifluoromethyl)phenyl]pyridazin-4(1H)-one] | 181 to 183 |
| CC(C)n1ncc(-c2nn(-c3cccc(C(F)(F)F)c3)ccc2=O)c1-c1ccccc1 [Example 78, 3-[1-(1-Methylethyl)-5-phenyl-1H-pyrazol-4-yl]-1-[3-(trifluoromethyl)phenyl]pyridazin-4(1H)-one] | 183 to 186 |
| O=c1ccn(-c2cccc(C(F)(F)F)c2)nc1-c1conc1-c1ccccc1 [Example 79, 3-(3-Phenylisoxazol-4-yl)-1-[3-(trifluoromethyl)phenyl]pyridazin-4(1H)-one] | 217 to 219 |
| O=c1ccn(-c2cccc(C(F)(F)F)c2)nc1-n1ccnc1-c1ccccc1 [Example 81, 3-(2-Phenyl-1H-imidazol-1-yl)-1-[3-(trifluoromethyl)phenyl]pyridazin-4(1H)-one] | 204 to 205 |
| COc1cn(-c2cccc(C(F)(F)F)c2)nc(-n2ccnc2-c2ccccc2)c1=O [Example 82, 5-Methoxy-3-(2-phenyl-1H-imidazol-1-yl)-1-[3-(trifluoromethyl)phenyl]pyridazin-4(1H)-one] | 167 to 170 |
| Cn1cnc(-c2ccccc2)c1-c1nn(-c2cccc(C(F)(F)F)c2)ccc1=O [Example 84, 3-(1-Methyl-4-phenyl-1H-imidazol-5-yl)-1-[3-(trifluoromethyl)phenyl]pyridazin-4(1H)-one] | 214 to 216 |
| O=c1ccn(-c2cccc(C(F)(F)F)c2)nc1-c1ccoc1-c1ccccc1 [Example 85, 3-(2-Phenylfuran-3-yl)-1-[3-(trifluoromethyl)phenyl]pyridazin-4(1H)-one] | 159 to 163 |

Results, then the compound that gave them:

| melting point [°C] | Compound |
| --- | --- |
| 167 to 168 | O=c1ccn(-c2cccc(C(F)(F)F)c2)nc1-c1ccsc1-c1ccccc1 [Example 86, 3-(2-Phenylthiophen-3-yl)-1-[3-(trifluoromethyl)phenyl]pyridazin-4(1H)-one] |
| 195 to 197 | COc1cn(-c2ccncc2)nc(-c2ccnn2-c2ccccc2)c1=O [Example 87, 5-Methoxy-3-(1-phenyl-1H-pyrazol-5-yl)-1-pyridin-4-ylpyridazin-4(1H)-one] |
| 189 to 192 | COc1cn(-c2cccc3cccnc23)nc(-c2ccnn2-c2ccccc2)c1=O [Example 88, 5-Methoxy-3-(1-phenyl-1H-pyrazol-5-yl)-1-quinolin-8-ylpyridazin-4(1H)-one] |
| 181 to 183 | COc1cn(-c2cccc3c2OC(F)(F)O3)nc(-c2ccnn2-c2ccccc2)c1=O [Example 90, 1-(2,2-Difluoro-1,3-benzodioxol-4-yl)-5-methoxy-3-(1-phenyl-1H-pyrazol-5-yl)pyridazin-4(1H)-one] |
| 223 to 224 | COc1cn(-c2ccc(O)cc2F)nc(-c2ccnn2-c2ccccc2)c1=O [Example 91, 1-(2-Fluoro-4-hydroxyphenyl)-5-methoxy-3-(1-phenyl-1H-pyrazol-5-yl)pyridazin-4(1H)-one] |
| 200 to 202 | COc1cn(-c2cc3c(cc2F)OC(F)(F)O3)nc(-c2ccnn2-c2ccccc2)c1=O [Example 95, 5-Methoxy-3-(1-phenyl-1H-pyrazol-5-yl)-1-(2,2,6-trifluoro-1,3-benzodioxol-5-yl)pyridazin-4(1H)-one] |
| 192 to 194 | COc1cn(-c2cc3c(cc2F)OC(F)(F)C(F)(F)O3)nc(-c2ccnn2-c2ccccc2)c1=O [Example 96, 5-Methoxy-1-(2,2,3,3,7-pentafluoro-2,3-dihydro-1,4-benzodioxin-6-yl)-3-(1-phenyl-1H-pyrazol-5-yl)pyridazin-4(1H)-one] |
| 200 to 202 | COc1cn(-c2ccc(-c3c(C)noc3C)cc2F)nc(-c2ccnn2-c2ccccc2)c1=O [Example 112, 1-[4-(3,5-Dimethylisoxazol-4-yl)-2-fluorophenyl]-5-methoxy-3-(1-phenyl-1H-pyrazol-5-yl)pyridazin-4(1H)-one] |
| 105 to 107 | O=c1ccn(-c2cccc3c2OC(F)(F)O3)nc1-c1ccnn1-c1ccccc1 [Example 142, 1-(2,2-Difluoro-1,3-benzodioxol-4-yl)-3-(1-phenyl-1H-pyrazol-5-yl)pyridazin-4(1H)-one] |
| 155 to 157 | O=c1ccn(-c2cccc(C(F)(F)F)c2)nc1-c1ccnn1CC1CC1 [Example 152, 3-[1-(Cyclopropylmethyl)-1H-pyrazol-5-yl]-1-[3-(trifluoromethyl)phenyl]pyridazin-4(1H)-one] |
| 156 to 157 | O=c1ccn(-c2cccc(C(F)(F)F)c2)nc1-c1ccnn1Cc1ccccc1 [Example 153, 3-(1-Benzyl-1H-pyrazol-5-yl)-1-[3-(trifluoromethyl)phenyl]pyridazin-4(1H)-one] |
| 159 to 161 | COc1ccc(Cn2nccc2-c2nn(-c3cccc(C(F)(F)F)c3)ccc2=O)cc1 [Example 154, 3-[1-(4-Methoxybenzyl)-1H-pyrazol-5-yl]-1-[3-(trifluoromethyl)phenyl]pyridazin-4(1H)-one] |
| 210 to 212 | COc1cn(-c2cccnc2)nc(-c2ccnn2-c2ccccc2)c1=O [Example 173, 5-Methoxy-3-(1-phenyl-1H-pyrazol-5-yl)-1-pyridin-3-ylpyridazin-4(1H)-one] |
| 171 to 174 | COc1cn(-c2cc(N3CCCC3=O)ccc2F)nc(-c2ccnn2-c2ccccc2)c1=O [Example 182, 1-[2-Fluoro-5-(2-oxopyrrolidin-1-yl)phenyl]-5-methoxy-3-(1-phenyl-1H-pyrazol-5-yl)pyridazin-4(1H)-one] |
| 200 to 201 | COc1cn(-c2ccc(N3CC4(CC4)OC3=O)cc2F)nc(-c2ccnn2-c2ccccc2)c1=O [Example 191, 6-{3-Fluoro-4-[5-methoxy-4-oxo-3-(1-phenyl-1H-pyrazol-5-yl)pyridazin-1(4H)-yl]phenyl}-4-oxa-6-azaspiro[2.4]heptan-5-one] |
| 139 to 141 | COc1cc(=O)c(-c2ccnn2-c2ccccc2)nn1-c1cccc(C(F)(F)F)c1 [Example 193, 6-Methoxy-3-(1-phenyl-1H-pyrazol-5-yl)-1-[3-(trifluoromethyl)phenyl]pyridazin-4(1H)-one] |

— patent US8513251B2, “Pyridazinone compounds” (Takeda Pharmaceutical Company Limited, priority 2009, dated 2013)
